Results published in US20250367171A1, “THERAPEUTIC OR PROPHYLACTIC AGENT FOR PERIPHERAL NEUROPATHIES” (Toray Industries, Inc., priority 2017, published 2025).

Columns and labels:
[1] = system: fetal rat dorsal root ganglion-derived established neuronal cell line ND15; experiment: Repair effect on cisplatin-induced cell damage (cell viability), post-treatment; assay type: cell-based; conditions: ND15 cells, 24 hours cisplatin, then 2 hours post-treatment with compound 1 at 0.5, 5 or 50 μM
Procedure: A fetal rat dorsal root ganglion-derived established neuronal cell line ND15 was cultured in 10% FBS-containing DMEM. On the next day, the cells were cultured in 10% FBS-containing DMEM containing EC23 (10 μM, Reinner) for 8 days, for differentiation into neurons.
For measurement of cell viability, the medium was exchanged with DMEM/F12 medium containing alamarBlue (Invitrogen), followed by 2 hours of culture, and then the absorbance at wavelength of 570 nm and the absorbance at wavelength of 595 nm were measured. Cell viability was calculated using the ratio of the absorbance at wavelength of 570 nm to the absorbance at wavelength of 595 nm and the untreated group designated as 100%.
In a manner similar to Example 1, cell damage was induced to a fetal rat dorsal root ganglion-derived established neuronal cell line ND15 by the use of cisplatin, and then the cell viability was measured. After 24 hours of treatment with cisplatin, compound 1 was contained in a medium for 2 hours of treatment (final concentration of 0.5, 5 or 50 μM). Groups were composed of 6 groups: an untreated group; a 50 μM compound 1 treatment group; a cisplatin treatment group; a cisplatin and 0.5 μM compound 1 treatment group; a cisplatin and 5 μM compound 1 treatment group; and a cisplatin and 50 μM compound 1 treatment group.

[2] = system: rat bortezomib-induced peripheral neuropathy model; experiment: Mechanical allodynia (von Frey test) in rat bortezomib-induced peripheral neuropathy model; assay type: in vivo; conditions: 20 mg/kg oral single dose, day 15, 3 hours after administration, vs vehicle group
Procedure: Bortezomib (0.2 mg/kg, AdooQ BioScience) was intraperitoneally administered 4 times in total to SD rats (6 weeks old, male; CHARLES RIVER LABORATORIES JAPAN, INC.) on days 1, 4, 8 and 11 after induction of pathological conditions, thereby preparing a bortezomib-induced peripheral neuropathy model. Here, the initial day of administration was designated as the 1st day (Day1) after induction of pathological conditions. Bortezomib was dissolved in dimethyl sulfoxide, and then Tween80 was added. Subsequently, water for injection was added to prepare a 0.2 mg/mL solution. The final concentration of dimethyl sulfoxide and that of Tween80 were each 5%.
On day 15 after induction of pathological conditions, a solution containing compound 1 (20 mg/kg) or a solvent thereof (water for injection) was orally administered to rats. Groups were composed of 2 groups: a solvent administration group (vehicle group) and a compound 1 (20 mg/kg) administration group.
Beneficial effects on mechanical allodynia were evaluated in a manner similar to Example 5, and this evaluation was performed before and on day 15 after induction of pathological conditions (3 hours after administration of compound 1).

[3] = system: rat experimental autoimmune neuritis (EAN) model; experiment: Rat experimental autoimmune neuritis (EAN) model: clinical scores, body weight, histopathology; assay type: in vivo
Procedure: A method of preparing EAN model rats is as described below. Peripheral myelin protein P2 peptide 57-81 (synthesized at Toray Research Center, Inc.) was dissolved in physiological saline (Otsuka Pharmaceutical Factory, Inc.) to prepare a 2 mg/mL solution. The solution and 2 mg/mL complete Freund's adjuvant (Difco Laboratories) containing killed Mycobacterium tuberculosis H37Ra were mixed in equal amounts, thereby preparing an emulsion which was a peptide solution for administration. The peptide solution for administration (200 μL) was administered subcutaneously to the base of the tail of each Lewis rat (6 to 7 weeks old, male; CHARLES RIVER LABORATORIES JAPAN, INC.) under anesthesia, thereby preparing the EAN model. The day of administration of the peptide was designated as day 0 after induction of pathological conditions.
Clinical scores were evaluated as follows: 0=no symptom, 1=limp tail or hind limb weakness, 2=limp tail and hind limb weakness, 3=partial hind limb paralysis, 4=complete hind limb paralysis, 5=moribund state or death. Weighing was also performed.
Compound 1 (20 mg/kg) was dissolved in distilled water (Otsuka Pharmaceutical Factory, Inc.) and then the solution was orally administered to the EAN model twice a day (administration was started on day 10 after induction of pathological conditions). As a control, distilled water was orally administered to the EAN model. Groups were composed of 2 groups: a solvent administration group (vehicle group); and a compound 1 administration group.
For histopathological evaluation, on day 17 after induction of pathological conditions, the sciatic nerve and the tibial nerve were isolated, and then immersed in a 10% formalin neutral buffer solution. Specimens were sliced and then subjected to hematoxylin-eogin staining, Kliiver-Barrera staining (double staining of Luxol Fast Blue staining and Nissl staining) and immunostaining (IbaI, CD3, NFP and MBP). Specimens were observed under an optical microscope, and then the presence or the absence of T cell and macrophage infiltration, and degeneration of myelin sheaths and axons were evaluated.

[4] = system: rat oxaliplatin-induced peripheral neuropathy model; experiment: Cold allodynia (cold plate test) in rat oxaliplatin-induced peripheral neuropathy model; assay type: in vivo; conditions: 10 mg/kg oral twice a day, day 12 after induction, vs vehicle group
Procedure: Oxaliplatin (4 mg/kg, Elplat I.V. infusion solution […]; Yakult) was administered to SD rats (7 weeks old, male; CHARLES RIVER LABORATORIES JAPAN, INC.) in a cycle of 1 week (intraperitoneally administered twice, two consecutive days per week) for 2 or 3 weeks, thereby preparing an oxaliplatin-induced peripheral neuropathy model. As a control (pseudo-induction), a 5% glucose solution (Otsuka Pharmaceutical Factory, Inc.) was administered. The initial day of administration was designated as day 0 after induction of pathological conditions.
A solution containing compound 1 (3 or 10 mg/kg) or a solvent thereof (water for injection; Otsuka Pharmaceutical Factory, Inc.) was orally administered everyday (twice a day) (2nd administration was performed 8 hours after the 1st administration) to rats from day 0 after induction of pathological conditions for 18 days. […]
The beneficial effects on cold allodynia were evaluated before induction of pathological conditions and on day 12 after induction of pathological conditions (before the 1st administration of compound 1). Beneficial effects on cool allodynia were evaluated by cold plate test. […] An animal was placed on a plate kept at a predetermined temperature (8° C.), and then the withdrawal latency required until pain-related behaviors (hind paw lifting, hind paw shaking, hind paw licking, standing, or jumping) were confirmed was measured. […]

[5] = 20 mg/kg oral twice a day, day 17, n = 3

## CN(C)C1CCN(C(=O)C[C@H](O)c2nccn2C)CC1 [Compound 1, (S)-1-(4-(dimethylamino)piperidin-1-yl)-3-hydroxy-3-(1-methyl-1H-imidazol-2-yl)propan-1-one]
[1]
  cell viability (decrease caused by cisplatin): suppressed decrease
[2]
  50% response threshold in von Frey test (mechanical allodynia): significant increase in 50% response threshold
[3]; 20 mg/kg oral twice a day from day 10 after induction
  body weight loss: no body weight loss was induced
[3]; 20 mg/kg oral twice a day from day 10 after induction, vs vehicle group
  clinical scores: Increases in clinical scores were suppressed
[3]; [5]
  number of animals with T cell infiltration, sciatic nerve: 1/3
  number of animals with T cell infiltration, tibial nerve: 0/3
  number of animals with axonal degeneration, sciatic nerve: 0/3
  number of animals with axonal degeneration, tibial nerve: 0/3
  number of animals with macrophage infiltration, sciatic nerve: 1/3
  number of animals with macrophage infiltration, tibial nerve: 0/3
  number of animals with myelin sheath degeneration, sciatic nerve: 0/3
  number of animals with myelin sheath degeneration, tibial nerve: 0/3
[4]
  withdrawal latency in cold plate test (cold allodynia): significantly prolonged withdrawal latency
